1 substance from patent US20130345392A1, “EDN3-LIKE PEPTIDES AND USES THEREOF” (Pfizer Inc, priority 2011, published 2013) can be followed below.

Bridges are numbered along the chain shown (N, C = ends). Where no end group is shown, it is not given here.

One assay deals with rat perfused colon. Briefly: GLP-1 secretion from rat perfused colon ex vivo. As to the method: Ex vivo rat colon vascular perfusion experiments were performed as previously described (Plaisancié, 1995). Male Sprague-Dawley rats (300 g) were purchased from Charles River and fed ad libitum with Purina Lab Chow #5001 (WF Fisher and Son Inc Sommerville, N.J.). Rats were decapitated and the abdomen was opened with a midline incision. […] The arterial vascular perfusion started immediately with an oxygenated Krebs-Henseleit buffer containing-solution at a rate of 2 mL/minute [solution: Krebs-Henseleit buffer (25.0 mM NaHCO3; 118 mM NaCl; 4.7 mM KCl; 1.2 mM MgSO4; 1.2 mM KH2PO4; 2.5 mM CaCl2) with 3% BSA, 5 mM glucose, MEM essential and nonessential amino acids (pH 7.4)]. The colonal lumen was perfused at the rate of 0.5 mL/minute. The remaining colon and small intestine were removed after the ligation of their respective supplying vessels. After the colon preparation was transferred to a 37° C. tissue bath, the portal effluent was collected as 5 minute fractions. The fraction aliquots were frozen at −20° C. for subsequent determinations of GLP-1. EDN3 97-140 was dissolved at 200 nM in vascular perfusion solution and perfused into the artery after a 30 minute baseline collection. […] The GLP-1 detection assay was carried out by using a commercial kit for active GLP-1 (7-36) amide according to the manufacturer's instructions (Millipore). GLP-1 release data was normalized to % baseline using the average of fractions collected prior to treatment as the baseline value and the peak data following each treatment. The average data across 3 independent experiments was reported comparing EDN3 97-140 versus control (baseline) and forskolin versus control (baseline). Statistical analysis was performed by one sided Satterwaite's test due to unequal variance and the Holm test was applied to account for multiple comparisons.

A further assay relates to GLUTag cells. To be noted: GLUTag cells.
For assay [1], the target named is T1, human endothelin ETA receptor (Homo sapiens, UniProt P25101).
T1 construct: expressed in transfected cells; host or cells: CHO cells
T1 sequence (P25101 21-427): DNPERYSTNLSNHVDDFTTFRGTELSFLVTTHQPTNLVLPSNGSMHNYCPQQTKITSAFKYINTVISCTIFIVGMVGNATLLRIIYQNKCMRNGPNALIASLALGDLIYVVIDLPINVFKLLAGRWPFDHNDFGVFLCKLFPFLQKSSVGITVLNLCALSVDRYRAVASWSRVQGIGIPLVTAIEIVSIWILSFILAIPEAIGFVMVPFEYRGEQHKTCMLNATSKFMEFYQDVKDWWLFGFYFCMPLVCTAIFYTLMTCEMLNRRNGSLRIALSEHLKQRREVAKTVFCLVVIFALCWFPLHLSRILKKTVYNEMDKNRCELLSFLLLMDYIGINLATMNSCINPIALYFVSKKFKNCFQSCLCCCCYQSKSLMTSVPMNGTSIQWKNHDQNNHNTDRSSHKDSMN
The assay can be described thus: Radioligand binding, human endothelin ETA receptor in transfected CHO cell membranes. The settings on record: tested at a concentration of up to 3 μM (p>0.05). As to the method: To evaluate the affinity of EDN3 97-140 for the agonist site of the human endothelin ETA receptor, radioligand binding with CHO cells transfected with the ETA receptor was used. […] Following incubation, the samples are filtered rapidly under vacuum through glass fiber filters (GF/B, Packard) presoaked with 0.1% BSA and rinsed several times with an ice-cold buffer containing 50 mM Tris-HCl and 150 mM NaCl using a 96-sample cell harvester (Unifilter, Packard). Filters were dried and then counted for radioactivity in a scintillation counter (Topcount, Packard) using a scintillation cocktail (Microscint 0, Packard). Results are expressed as a percent inhibition of the control radioligand specific binding.

For the next assay, the system named is H4IIE rat hepatoma cells. The assay can be described thus: H4IIE glucose production in vitro. In kind it is cell-based. To be noted: 100 nM, 24 hours, mean of 3 independent experiments±SEM, p=0.01. As to the method: Cell culture reagents were purchased from Invitrogen (Gathersburg, Md.) unless otherwise noted. GLUTag cells were obtained from Dr. Daniel Drucker and cultured in High Glucose DMEM medium supplemented with 100 U/mL penicillin, 100 μg/mL streptomycin, and 10% fetal calf serum at 10% CO2 at 37° C. H4IIE rat hepatoma cells were purchase from American Type Culture Collection (Manassas, Va.) and cultured in low glucose DMEM supplemented with 100 U/mL penicillin, 100 μg/mL streptomycin, 2 mM L-glutamine and 10% heat-inactivated fetal calf serum at 5% CO2 and 37° C.
H4IIE cells were plated at 120,000 cells per well into 96-well Poly-D-Lysine coated plates and treated using a modification of the protocol as previously reported (de Raemy-Schenk, 2006). Briefly, 4 hours after plating, growth medium was exchanged for glucose production medium (glucose-free DMEM, 2 mM sodium pyruvate, and 20 mM sodium lactate) for 18 hours and then cells were treated with EDN3 97-140 or vehicle in fresh glucose production medium. After 24 hours, media was collected and assayed for glucose using an Amplex Red Glucose/Glucose Oxidase Assay Kit purchased from Invitrogen (Gathersburg, Md.). Data was reported as a percent of vehicle to normalize across experiments. […]

Another assay concerns INS1 cells. The assay can be described thus: Glucose-stimulated insulin release from INS1 cells. The settings on record: 10 μM (data not shown). In kind it is cell-based.
Assay [2] concerns the target T2, human endothelin ETB receptor (Homo sapiens, UniProt P24530).
T2 construct: expressed in transfected cells; host or cells: CHO cells
T2 sequence (P24530 27-442): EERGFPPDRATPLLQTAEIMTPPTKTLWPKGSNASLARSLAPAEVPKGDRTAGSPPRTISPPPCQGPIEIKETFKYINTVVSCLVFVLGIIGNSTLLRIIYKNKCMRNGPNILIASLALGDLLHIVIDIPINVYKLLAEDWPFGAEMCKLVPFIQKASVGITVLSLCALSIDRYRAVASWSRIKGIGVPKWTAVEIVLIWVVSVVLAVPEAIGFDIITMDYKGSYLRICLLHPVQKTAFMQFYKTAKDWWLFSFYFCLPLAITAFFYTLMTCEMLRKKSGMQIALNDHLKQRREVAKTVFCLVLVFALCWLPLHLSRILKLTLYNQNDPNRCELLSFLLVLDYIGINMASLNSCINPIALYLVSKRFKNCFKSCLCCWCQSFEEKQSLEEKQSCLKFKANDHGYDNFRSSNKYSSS
The assay can be described thus: Radioligand binding, human endothelin ETB receptor in transfected CHO cell membranes. To be noted: tested at a concentration of up to 3 μM (p>0.05). Here is the method: To evaluate the affinity of EDN3 97-140 for the agonist site of the human endothelin ETB receptor in transfected CHO cells, radioligand binding was used. […] Following incubation, the samples were filtered rapidly under vacuum through glass fiber filters (GF/B, Packard) presoaked with 0.1% BSA and rinsed several times with an ice-cold buffer containing 50 mM Tris-HCl and 150 mM NaCl using a 96-sample cell harvester (Unifilter, Packard). The filters were dried then counted for radioactivity in a scintillation counter (Topcount, Packard) using a scintillation cocktail (Microscint 0, Packard).

The EC50 is the concentration that produces a half-maximal response. On to “CTCFTYKDKECVYYCHLDIIWINTPEQTVPYGLSNYRESLRGKR-NH2 (disulfide 1-15, 3-11) [EDN3 97-140]”, for which the “increase in GLP secretion from the rat perfused colon” value in the assay on rat perfused colon (200 nM perfused via the superior mesenteric artery, vs baseline, p=0.0438) was found to be 56±18%. Also, the “increase in GLP-1 release” value in the assay with rat perfused colon (200 nM, rat perfused colon) is around 10 pM. Moreover, the “stimulated GLP-1 secretion” value in the assay on GLUTag cells (1 μM, vehicle pre-treatment) is 327±59 % of vehicle. Moreover, the “GLP-1 secretion from GLUTag cells, result in words” value in the assay on GLUTag cells (endothelin-3 at highest concentration 10 μM) is reported as “most potent peptide tested”. Besides, the EC50 with GLUTag cells (read-out: EC50, GLP-1 release GLUTag assay, 15 mM glucose) is 369 nM. For the same substance, in assay [1], the “binding to ETA receptor” value was “failed to bind”. Also, in the assay with H4IIE rat hepatoma cells, the “reduction of basal glucose production versus vehicle” value is 19.5±7.6%. For the same substance, in the assay with INS1 cells, the “modulation of glucose-stimulated insulin release from INS1 cells” value is listed as “failed to modulate”. In addition, the “binding to ETB receptor” value in assay [2] is “failed to bind”.
